{"source": "patent US8497245B2", "about": "“Trypsin-like serine protease inhibitors, their preparation and use as selective inhibitors of the clotting factors IIa and Xa” (The Medicines Company (Leipzig) GmbH, priority 2010, dated 2013)"}
{"biological_target": "T1, Human plasma kallikrein (h PK) (Homo sapiens, UniProt P03952)", "T1 construct": "purchased Enzyme Research Laboratories", "T1 sequence (P03952 391-638 limits assumed)": "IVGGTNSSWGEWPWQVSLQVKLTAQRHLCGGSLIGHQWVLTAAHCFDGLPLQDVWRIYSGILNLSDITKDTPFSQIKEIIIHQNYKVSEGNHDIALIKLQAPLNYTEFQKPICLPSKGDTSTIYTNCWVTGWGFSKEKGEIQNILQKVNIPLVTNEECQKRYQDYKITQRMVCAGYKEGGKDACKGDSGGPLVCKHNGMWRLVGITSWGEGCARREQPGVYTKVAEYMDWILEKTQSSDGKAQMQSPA", "T1 sequence (P03952 20-390 partner limits assumed)": "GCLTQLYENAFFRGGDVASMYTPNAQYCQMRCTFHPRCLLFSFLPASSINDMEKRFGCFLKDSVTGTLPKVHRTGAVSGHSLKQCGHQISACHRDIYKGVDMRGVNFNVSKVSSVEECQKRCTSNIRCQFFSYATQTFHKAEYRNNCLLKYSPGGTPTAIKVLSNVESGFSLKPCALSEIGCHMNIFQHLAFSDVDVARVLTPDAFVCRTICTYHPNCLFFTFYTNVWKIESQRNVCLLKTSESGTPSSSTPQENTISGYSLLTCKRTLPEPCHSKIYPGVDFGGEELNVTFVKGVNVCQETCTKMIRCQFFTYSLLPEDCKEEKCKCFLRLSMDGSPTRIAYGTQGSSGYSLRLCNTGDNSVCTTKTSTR", "test": "Inhibition of human plasma kallikrein (reference enzyme)", "assay_type": "biochemical", "settings": "S2302 substrate", "procedure": "(§1) The inhibitory effect against the individual purified enzymes was determined in analogy to a previously disclosed method (Stürzebecher et al., J. Med. Chem., 40, 3091-3099 (1997)).\n(§2) The release of p-nitroaniline (p-NA, the chromogenic product of the proteolytic activity), was determined by change in absorbance at 405 nm. The equilibrium rates were used to calculate the inhibitor/enzyme dissociation constant (Ki values) by parameter fitting in accordance with the rate equation for competitive inhibition using GraFit (version 4 from Erithacus). The results are reported as Ki values (nanomolar) in table 7 and are the average of at least three determinations.\n(§3) Dissociation constants were calculated as described herein.", "units": {"Ki": "µM"}}
{"compound": "NCc1ccc(Cl)cc1CNC(=O)[C@@H]1CCCCN1C(=O)[C@@H](CC(=O)N1CCOCC1)NS(=O)(=O)Cc1ccccc1", "note": "[Compound 2.14]", "Ki": 4.53}
{"compound": "NCc1ccc(Cl)cc1CNC(=O)[C@@H]1CCCCN1C(=O)[C@@H](CCC(=O)N1CCOCC1)NS(=O)(=O)Cc1ccccc1", "note": "[Compound 2.15]", "Ki": 7.2}
{"biological_target": "T2, Human urokinase type plasminogen activator (h u-PA) (Homo sapiens, UniProt P00749)", "T2 construct": "purchased MEDAC GmbH Urokinase HS medac", "test": "Inhibition of human urokinase type plasminogen activator (reference enzyme)", "assay_type": "biochemical", "settings": "H-Glu-Gly-Arg-pNA substrate", "procedure": "as §1, §2, §3", "units": {"Ki": "µM"}}
{"compound": "NCc1ccc(Cl)cc1CNC(=O)[C@@H]1CCCCN1C(=O)[C@@H](CC(=O)N1CCOCC1)NS(=O)(=O)Cc1ccccc1", "note": "[Compound 2.14]", "Ki": "> 50"}
{"compound": "NCc1ccc(Cl)cc1CNC(=O)[C@@H]1CCCCN1C(=O)[C@@H](CCC(=O)N1CCOCC1)NS(=O)(=O)Cc1ccccc1", "note": "[Compound 2.15]", "Ki": "> 50"}
{"biological_target": "T3, Human plasmin (h plasmin) (Homo sapiens, UniProt P00747)", "T3 construct": "purchased Calbiochem", "T3 sequence (P00747 581-810 limits assumed)": "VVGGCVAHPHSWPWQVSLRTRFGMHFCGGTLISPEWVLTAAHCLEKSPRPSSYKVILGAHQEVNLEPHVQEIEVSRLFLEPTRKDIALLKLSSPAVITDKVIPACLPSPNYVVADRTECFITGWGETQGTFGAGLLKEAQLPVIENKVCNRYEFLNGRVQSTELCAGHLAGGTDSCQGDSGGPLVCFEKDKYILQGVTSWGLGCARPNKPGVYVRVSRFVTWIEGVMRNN", "T3 sequence (P00747 97-580 partner limits assumed)": "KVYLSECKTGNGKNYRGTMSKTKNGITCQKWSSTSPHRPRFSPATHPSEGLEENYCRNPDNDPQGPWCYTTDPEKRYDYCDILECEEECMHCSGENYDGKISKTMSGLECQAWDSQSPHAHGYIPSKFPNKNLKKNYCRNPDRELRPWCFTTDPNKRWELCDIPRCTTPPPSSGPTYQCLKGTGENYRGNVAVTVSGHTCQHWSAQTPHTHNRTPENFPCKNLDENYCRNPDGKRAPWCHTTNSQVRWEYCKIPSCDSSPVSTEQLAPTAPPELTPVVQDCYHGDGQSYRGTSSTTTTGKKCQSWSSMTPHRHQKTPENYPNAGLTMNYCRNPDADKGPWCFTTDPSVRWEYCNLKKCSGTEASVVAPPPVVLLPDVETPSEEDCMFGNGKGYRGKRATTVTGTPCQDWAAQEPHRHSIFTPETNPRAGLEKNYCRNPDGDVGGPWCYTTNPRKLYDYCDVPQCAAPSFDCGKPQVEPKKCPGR", "test": "Inhibition of human plasmin (reference enzyme)", "assay_type": "biochemical", "settings": "Chromozym PL substrate", "procedure": "as §1, §2, §3", "units": {"Ki": "µM"}}
{"compound": "NCc1ccc(Cl)cc1CNC(=O)[C@@H]1CCCCN1C(=O)[C@@H](CC(=O)N1CCOCC1)NS(=O)(=O)Cc1ccccc1", "note": "[Compound 2.14]", "Ki": "> 50"}
{"compound": "NCc1ccc(Cl)cc1CNC(=O)[C@@H]1CCCCN1C(=O)[C@@H](CCC(=O)N1CCOCC1)NS(=O)(=O)Cc1ccccc1", "note": "[Compound 2.15]", "Ki": "> 5"}
{"biological_target": "T4, Human tissue-type plasminogen activator (h t-PA) (Homo sapiens, UniProt P00750)", "T4 construct": "purchased Boehringer Ingelheim Actilyse", "T4 sequence (P00750 36-562)": "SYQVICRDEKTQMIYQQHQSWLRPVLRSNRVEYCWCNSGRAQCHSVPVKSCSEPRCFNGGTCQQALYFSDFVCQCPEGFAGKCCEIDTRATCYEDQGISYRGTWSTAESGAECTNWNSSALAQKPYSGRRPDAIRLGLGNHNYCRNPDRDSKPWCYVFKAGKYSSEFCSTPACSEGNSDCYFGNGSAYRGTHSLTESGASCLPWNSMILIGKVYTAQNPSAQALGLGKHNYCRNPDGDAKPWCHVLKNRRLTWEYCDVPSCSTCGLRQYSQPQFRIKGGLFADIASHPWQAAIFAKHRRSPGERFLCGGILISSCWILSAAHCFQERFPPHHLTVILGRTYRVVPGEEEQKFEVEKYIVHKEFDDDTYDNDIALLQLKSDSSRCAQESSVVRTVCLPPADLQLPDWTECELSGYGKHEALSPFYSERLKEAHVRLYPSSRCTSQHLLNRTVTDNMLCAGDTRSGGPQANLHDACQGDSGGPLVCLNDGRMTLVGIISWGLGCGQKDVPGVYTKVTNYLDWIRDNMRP", "test": "Inhibition of human tissue-type plasminogen activator (reference enzyme)", "assay_type": "biochemical", "settings": "Pefachrome tPA substrate; read-out: Ki h t-PA", "procedure": "The equilibrium rates were used to calculate the inhibitor/enzyme dissociation constant (Ki values) by parameter fitting in accordance with the rate equation for competitive inhibition using GraFit (version 4 from Erithacus).\nas §3", "units": {"Ki": "µM"}}
{"compound": "NCc1ccc(Cl)cc1CNC(=O)[C@@H]1CCCCN1C(=O)[C@@H](CC(=O)N1CCOCC1)NS(=O)(=O)Cc1ccccc1", "note": "[Compound 2.14]", "Ki": "> 50"}
{"compound": "NCc1ccc(Cl)cc1CNC(=O)[C@@H]1CCCCN1C(=O)[C@@H](CCC(=O)N1CCOCC1)NS(=O)(=O)Cc1ccccc1", "note": "[Compound 2.15]", "Ki": "> 10"}
{"biological_target": "T5, Human Activated Protein C (h aPC) (Homo sapiens, UniProt P04070)", "T5 construct": "purchased Enzyme Research Laboratories", "T5 sequence (P04070 212-450 limits assumed)": "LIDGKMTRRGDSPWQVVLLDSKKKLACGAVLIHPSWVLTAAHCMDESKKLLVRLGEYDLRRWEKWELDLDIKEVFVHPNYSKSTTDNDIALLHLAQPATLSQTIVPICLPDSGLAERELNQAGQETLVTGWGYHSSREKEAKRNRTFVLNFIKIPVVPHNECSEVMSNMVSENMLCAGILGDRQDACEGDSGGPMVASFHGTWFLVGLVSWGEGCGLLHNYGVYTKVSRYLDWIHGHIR", "T5 sequence (P04070 43-197 partner limits assumed)": "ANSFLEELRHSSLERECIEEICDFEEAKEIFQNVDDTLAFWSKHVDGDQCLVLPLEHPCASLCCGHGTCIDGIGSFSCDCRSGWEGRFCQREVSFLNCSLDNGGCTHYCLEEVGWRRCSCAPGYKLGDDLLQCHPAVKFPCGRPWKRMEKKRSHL", "test": "Inhibition of human activated protein C (reference enzyme)", "assay_type": "biochemical", "settings": "Pefachrome PCa substrate", "procedure": "as §1, §2, §3", "units": {"Ki": "µM"}}
{"compound": "NCc1ccc(Cl)cc1CNC(=O)[C@@H]1CCCCN1C(=O)[C@@H](CC(=O)N1CCOCC1)NS(=O)(=O)Cc1ccccc1", "note": "[Compound 2.14]", "Ki": "> 20"}
{"compound": "NCc1ccc(Cl)cc1CNC(=O)[C@@H]1CCCCN1C(=O)[C@@H](CCC(=O)N1CCOCC1)NS(=O)(=O)Cc1ccccc1", "note": "[Compound 2.15]", "Ki": "> 10"}
{"biological_target": "T6, human Factor Xa (Homo sapiens, UniProt P00742)", "T6 construct": "human Factor Xa from Enzyme Research Laboratories; purchased Enzyme Research Laboratories", "T6 sequence (P00742 235-488 limits assumed)": "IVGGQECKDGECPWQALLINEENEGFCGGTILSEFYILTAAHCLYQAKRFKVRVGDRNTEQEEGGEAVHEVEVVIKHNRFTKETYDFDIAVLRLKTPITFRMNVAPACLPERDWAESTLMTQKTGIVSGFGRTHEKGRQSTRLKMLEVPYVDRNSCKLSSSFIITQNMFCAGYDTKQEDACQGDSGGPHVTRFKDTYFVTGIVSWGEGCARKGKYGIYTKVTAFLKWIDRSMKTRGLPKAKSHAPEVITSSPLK", "T6 sequence (P00742 41-179 partner limits assumed)": "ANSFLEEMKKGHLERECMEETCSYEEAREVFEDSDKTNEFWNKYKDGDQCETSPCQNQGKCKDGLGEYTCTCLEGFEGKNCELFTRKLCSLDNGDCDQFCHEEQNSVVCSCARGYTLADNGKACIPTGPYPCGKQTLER", "test": "Inhibition constants for human factor Xa, chromogenic substrate assay", "assay_type": "biochemical", "settings": "25° C., Pefachrome FXa substrate, average of at least three determinations; read-out: Ki h FXa", "procedure": "as §1\n(§4) 200 μL of TBS (0.05 M trishydroxymethylaminomethane; 0.154 M NaCl, 2% ethanol, pH 8.0)\nas §2", "units": {"Ki": "nM"}}
{"compound": "NCc1ccc(Cl)cc1CNC(=O)[C@@H]1CCCCN1C(=O)[C@@H](CC(=O)N1CCOCC1)NS(=O)(=O)Cc1ccccc1", "note": "[Compound 2.14]", "Ki": 8.3}
{"compound": "NCc1ccc(Cl)cc1CNC(=O)[C@@H]1CCCCN1C(=O)[C@@H](CCC(=O)N1CCOCC1)NS(=O)(=O)Cc1ccccc1", "note": "[Compound 2.15]", "Ki": 9.4}
{"biological_target": "T7, Subcomponent \"s\" of Human Complement Component 1 (h C1s) (Homo sapiens, UniProt P09871)", "T7 construct": "purchased Calbiochem", "T7 sequence (P09871 438-688 limits assumed)": "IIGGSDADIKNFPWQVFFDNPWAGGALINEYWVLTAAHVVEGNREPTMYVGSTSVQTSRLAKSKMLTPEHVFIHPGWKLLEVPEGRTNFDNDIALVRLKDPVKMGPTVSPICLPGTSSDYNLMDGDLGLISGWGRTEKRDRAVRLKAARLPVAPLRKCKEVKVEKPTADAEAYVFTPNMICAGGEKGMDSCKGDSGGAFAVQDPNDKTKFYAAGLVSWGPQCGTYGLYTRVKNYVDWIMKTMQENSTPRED", "T7 sequence (P09871 16-437 partner limits assumed)": "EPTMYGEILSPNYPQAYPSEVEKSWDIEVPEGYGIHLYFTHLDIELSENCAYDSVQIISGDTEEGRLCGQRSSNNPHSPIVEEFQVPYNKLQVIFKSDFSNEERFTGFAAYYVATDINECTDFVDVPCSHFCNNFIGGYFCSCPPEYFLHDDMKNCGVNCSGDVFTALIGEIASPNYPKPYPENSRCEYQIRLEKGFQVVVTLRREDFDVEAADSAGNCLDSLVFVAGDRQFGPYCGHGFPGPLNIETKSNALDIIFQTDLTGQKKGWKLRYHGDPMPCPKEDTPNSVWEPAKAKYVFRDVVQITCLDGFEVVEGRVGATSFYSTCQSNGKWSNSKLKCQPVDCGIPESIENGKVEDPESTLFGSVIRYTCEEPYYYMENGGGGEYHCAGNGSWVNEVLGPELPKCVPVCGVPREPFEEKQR", "test": "Inhibition of human C1s (reference enzyme)", "assay_type": "biochemical", "settings": "S-2314 substrate; read-out: Ki h Cls", "procedure": "as §1, §2, §3", "units": {"Ki": "µM"}}
{"compound": "NCc1ccc(Cl)cc1CNC(=O)[C@@H]1CCCCN1C(=O)[C@@H](CC(=O)N1CCOCC1)NS(=O)(=O)Cc1ccccc1", "note": "[Compound 2.14]", "Ki": "> 50"}
{"compound": "NCc1ccc(Cl)cc1CNC(=O)[C@@H]1CCCCN1C(=O)[C@@H](CCC(=O)N1CCOCC1)NS(=O)(=O)Cc1ccccc1", "note": "[Compound 2.15]", "Ki": "> 50"}
{"biological_target": "T8, Human urinary kallikrein (h uKK) (Homo sapiens, UniProt P06870)", "T8 construct": "purchased Lee Biosolutions", "T8 sequence (P06870 25-262)": "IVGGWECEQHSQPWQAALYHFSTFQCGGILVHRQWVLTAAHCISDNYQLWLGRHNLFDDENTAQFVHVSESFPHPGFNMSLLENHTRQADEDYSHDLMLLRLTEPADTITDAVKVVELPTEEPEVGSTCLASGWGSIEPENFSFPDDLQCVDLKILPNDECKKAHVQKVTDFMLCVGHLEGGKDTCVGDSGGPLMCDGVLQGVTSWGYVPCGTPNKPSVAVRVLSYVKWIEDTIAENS", "test": "Inhibition of human urinary kallikrein (reference enzyme)", "assay_type": "biochemical", "settings": "S-2266 substrate", "procedure": "as §1, §2, §3", "units": {"Ki": "µM"}}
{"compound": "NCc1ccc(Cl)cc1CNC(=O)[C@@H]1CCCCN1C(=O)[C@@H](CC(=O)N1CCOCC1)NS(=O)(=O)Cc1ccccc1", "note": "[Compound 2.14]", "Ki": "> 20"}
{"compound": "NCc1ccc(Cl)cc1CNC(=O)[C@@H]1CCCCN1C(=O)[C@@H](CCC(=O)N1CCOCC1)NS(=O)(=O)Cc1ccccc1", "note": "[Compound 2.15]", "Ki": "> 10"}
{"biological_target": "T9, human factor IIa (human alpha-thrombin) (Homo sapiens, UniProt P00734)", "T9 construct": "human alpha-thrombin from Enzyme Research Laboratories; purchased Enzyme Research Laboratories", "test": "Inhibition constants for human factor IIa, chromogenic substrate assay", "assay_type": "biochemical", "settings": "25° C., Pefachrome tPA substrate, average of at least three determinations; read-out: Ki h FIIa", "procedure": "as §1, §4, §2", "units": {"Ki": "nM"}}
{"compound": "NCc1ccc(Cl)cc1CNC(=O)[C@@H]1CCCCN1C(=O)[C@@H](CC(=O)N1CCOCC1)NS(=O)(=O)Cc1ccccc1", "note": "[Compound 2.14]", "Ki": 0.3}
{"compound": "NCc1ccc(Cl)cc1CNC(=O)[C@@H]1CCCCN1C(=O)[C@@H](CCC(=O)N1CCOCC1)NS(=O)(=O)Cc1ccccc1", "note": "[Compound 2.15]", "Ki": 0.7}
{"biological_target": "T10, Subcomponent \"r\" of Human Complement Component 1 (h C1r) (Homo sapiens, UniProt P00736)", "T10 construct": "purchased Calbiochem", "T10 sequence (P00736 464-705 limits assumed)": "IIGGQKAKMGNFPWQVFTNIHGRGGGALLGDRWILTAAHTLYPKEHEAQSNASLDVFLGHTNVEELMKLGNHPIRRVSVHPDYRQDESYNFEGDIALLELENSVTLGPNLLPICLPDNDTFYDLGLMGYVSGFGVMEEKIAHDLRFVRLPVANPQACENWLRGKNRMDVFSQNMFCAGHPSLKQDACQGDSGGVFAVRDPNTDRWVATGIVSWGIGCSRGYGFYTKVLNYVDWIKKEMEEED", "T10 sequence (P00736 18-463 partner limits assumed)": "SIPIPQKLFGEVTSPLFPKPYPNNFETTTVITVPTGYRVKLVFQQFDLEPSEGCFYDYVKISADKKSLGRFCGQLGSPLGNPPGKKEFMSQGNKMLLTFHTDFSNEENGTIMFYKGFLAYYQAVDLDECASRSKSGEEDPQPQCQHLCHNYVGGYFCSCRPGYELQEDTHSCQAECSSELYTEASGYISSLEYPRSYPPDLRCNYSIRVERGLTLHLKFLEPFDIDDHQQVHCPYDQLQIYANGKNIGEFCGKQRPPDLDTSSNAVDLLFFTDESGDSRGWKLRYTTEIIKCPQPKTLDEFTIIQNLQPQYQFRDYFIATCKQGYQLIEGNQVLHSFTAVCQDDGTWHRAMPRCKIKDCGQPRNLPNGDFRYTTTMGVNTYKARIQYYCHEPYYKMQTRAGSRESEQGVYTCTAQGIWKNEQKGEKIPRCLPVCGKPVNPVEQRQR", "test": "Inhibition of human C1r (reference enzyme)", "assay_type": "biochemical", "settings": "S-2314 substrate; read-out: Ki h Clr", "procedure": "as §1, §2, §3", "units": {"Ki": "µM"}}
{"compound": "NCc1ccc(Cl)cc1CNC(=O)[C@@H]1CCCCN1C(=O)[C@@H](CC(=O)N1CCOCC1)NS(=O)(=O)Cc1ccccc1", "note": "[Compound 2.14]", "Ki": "> 50"}
{"compound": "NCc1ccc(Cl)cc1CNC(=O)[C@@H]1CCCCN1C(=O)[C@@H](CCC(=O)N1CCOCC1)NS(=O)(=O)Cc1ccccc1", "note": "[Compound 2.15]", "Ki": "> 20"}
